From patent US20120027819A1, “Medical Devices Incorporating a Bioactive and Methods of Preparing Such Devices” (priority 2006, published 2012)

How the values were obtained:
[1] = cited from earlier work
[2] = Elution of bupivacaine from spray-coated ureteral stents in aqueous buffers (Example 1, FIG. 7); type: physicochemical; settings: for time to release/elute from coated stent (in words): ionic form coated on stent, aqueous environment, same conditions, hydrochloride
Source text: (§1) An approximately 0.6% solution of bupivacaine having a tertiary amine in the non-ionic form (formula (2a) above) in dichloromethane was loaded into a syringe mounted onto a syringe pump and connected to a tube that carried the solution to an ultrasonic nozzle (Model 06-05108—Sono-Tek Co., Poughkeepsie, N.Y. 12547.) A nozzle was 6 mm diameter, 11 mm long and used with a nominal frequency of 120 kHz. Air was purged from the solution line and the spray nozzle primed with the solution. The coating chamber was purged with nitrogen to attain an oxygen concentration below 100 ppm. The solution was sprayed onto ureteral stent substrates 20 to 280 mm long (polyurethane double pigtail soflex ureteral stent, Cook Incorporated (Bloomington, Ind.)). A smooth, uniform coating was observed. Control stents were coated with the same concentration of Bupivacaine.HCl using the above coating method.
The stents were placed in solutions at different pH values to test the elution of bupivacaine over time. […] Acetic acid/sodium acetate was used for the pH 4.5 buffer, 0.1M phosphate-buffered solution (PBS) for the pH 7.0 buffer, and sodium carbonate for the pH 9.5 buffer.

[3] = Exposure of coated ureteral stent to water / aqueous environment (FIGS. 8, 10); type: physicochemical
Source text: as §1
FIGS. 8-11 depict photomicrographs of the coatings showing the uniformity and tenacity of the non-ionic coatings, in contrast to the water-soluble ionic coatings. […] FIG. 9 depicts a relatively rough, crystalline coating 91 of bupivacaine-HCl on a ureteral stent 90, on the left, and the same stent after a one-minute ex vivo exposure to a pig ureter.
FIG. 11 then depicts the same type of stent 110 with a coating 114 of the non-ionic form of bupivacaine after 24 hours in an ex vivo test with a pig ureter.

[4] = cited from earlier work; remark: listed apart in the source

Compound | water solubility (in words) [1] | time to release/elute from coated stent (in words) [2] | time to release/elute from coated stent (in words) ([2]; listed as bupivacaine.HCl) | state of coating after dipping in water ([3]; dipped in water for one minute) | solubility ([1]; base or non-ionic form, water) | pKa ([4]; Table 1, acidic proton of proton binding site) | pKa of acidic proton of proton binding site ([4]; in water) | effect of eluting solution pH on elution rate ([2]; increasing the pH from 4.5 to 9.5) | period over which release from ureteral stent occurs ([2]; non-ionic form coated on ureteral stent, buffers pH 4.5, 7.0, 9.5) | state of coating after aqueous exposure ([3]; exposed to an aqueous environment for several days)
CCCCN1CCCCC1C(=O)Nc1c(C)cccc1C.Cl (stereo not drawn) [Bupivacaine.HCl, 1-butyl-N-(2,6-dimethylphenyl)-2-piperidinecarboxamide hydrochloride] | soluble in water | within a matter of minutes | eluted fully within minutes | substantially dissolved | – | – | – | – | – | –
C[C@@H]1C[C@H]2[C@@H]3CCC4=CC(=O)C=C[C@]4(C)[C@@]3(F)[C@@H](O)C[C@]2(C)[C@@]1(O)C(=O)CO [Dexamethasone] | practically insoluble in water | – | – | – | – | – | – | – | – | –
CCCCN1CCCCC1C(=O)Nc1c(C)cccc1C (stereo not drawn) [bupivacaine, 1-Butyl-N-(2,6-dimethylphenyl)-2-piperidinecarboxamide] | only very slightly soluble in water | – | – | – | about 0.2 mg/mL | 8.09 | about 8 | slightly slowed the rate of bupivacaine elution | about 12 days | virtually no effect on the coating
